{
  "source": "ChEMBL document CHEMBL4177539",
  "about": "“Discovery of N-((3R,4R)-4-Fluoro-1-(6-((3-methoxy-1-methyl-1H-pyrazol-4-yl)amino)-9-methyl-9H-purin-2-yl)pyrrolidine-3-yl)acrylamide (PF-06747775) through Structure-Based Drug Design: A High Affinity Irreversible Inhibitor Targeting Oncogenic EGFR Mutants with Selectivity over Wild-Type EGFR” (J Med Chem, 2017)",
  "assay": "physchem",
  "details": "phosphate buffer with glutathione, pH 7.4",
  "data": [
    {"molecule": "C=CC(=O)Nc1cc2c(Nc3ccc(F)c(Cl)c3)ncnc2cc1OCCCN1CCOCC1", "note": "[CANERTINIB]", "values": [
      {"measurement": "half-life at 2 h, 1 µM", "result": 21, "unit": "min"}
    ]}
  ]
}
